Tested on: HepG2 cells
Test: human liver cell viability, MTT assay
Assay type: cell-based
Details: at the concentration that yielded the highest functionality; overnight at 37° C.
Method: In the assay, HepG2 cells (human hepatocellular carcinoma cells) were harvested and incubated at 37° C. overnight in a 96-well plate to a concentration of 20,000 cells per well using Minimum Essential Medium (MEM) as media. The following day (or once cells were confluent) the media was removed and cells were incubated at 37° C. overnight with MEM supplemented with desired concentration of PMP-Glc and NOGlc (100 μL of solution added). The following day the plates were centrifuged (700 RPM for 3 minutes) and the solutions were removed. 200 μL of MEM was added to each well, followed by 50 μL of 2.5 mg/mL MTT solution in Hank's Balanced Salt Solution (HBSS) to a final concentration of 0.5 mg/mL MTT per well. Then the plates were incubated for 3 hours at 37° C. After incubation, the plates were centrifuged (700 RPM for 3 minutes) and 200 μL of a 10% TritonX/0.1 N HCl in isopropanol solution was added to each well. The plates were incubated in the dark for 1 hour, then shaken and the absorbance at […] of each well was read. % viability at 37° C. of PMP-Glc at a concentration 11 mM, 22 mM, 44 mM, 110 mM and 220 mM PMP-Glc was measured, and the results are shown in FIG. 12. % viability at 37° C. of NOGlc at a concentration of 0.1 mM, 0.2 mM, 0.5 mM, 1 mM, 2 mM and 5 mM was measured. Also, % viability at 37° C. of PMP-Glc, pFPh-Glc and pBrPh-Glc at a concentration of 11 mM, 22 mM, 44 mM, 55 mM, 110 mM and 220 mM was measured under the same conditions for the MTT Assay described above.
Human liver cell viability in compound (3a), (4a), […], and (1b) was assessed using a 3-(4,5-dimethylthiazol-2-yl)-2,5-diphenyltetrazolium bromide (MTT) Assay. In the assay, HepG2 cells (human hepatocellular carcinoma cells) were harvested and incubated overnight at 37° C. in a 96-well plate to a concentration of 20,000 cells per well using Minimum Essential Medium (MEM) as media. The following day, the media was removed and cells were incubated at 37° C. overnight with 100 μL MEM supplemented with different concentrations of (3a), (2a), (4a), and (1b). The following day, the plates were centrifuged at 1000 rpm for 5 minutes and solutions removed by aspiration. 200 μL of MEM was added to each well, followed by 50 μL of 2.5 mg/mL MTT (dissolved in HBSS). The plates were then incubated at 37° C. for 4 hours. After incubation, the plates were centrifuged at 1000 rpm for 5 minutes and solution was aspirated. […] The plates were incubated at ambient temperature for 3 hours before being shaken and the absorbance at 570 nm of each well was read. % viability at 37° C. of (3a) at 11 mM, 22 mM, 44 mM, 55 mM and 110 mM was measured and the results are shown in FIG. 37. […] Nonetheless, the cytotoxicity of DMSO itself was not determined.

`O=C(NCc1c(F)cccc1F)[C@H](O)[C@@H](O)[C@H](O)[C@H](O)CO` [(1b), N-(2,6-difluorobenzyl)-D-gluconamide] was tested, and the cytotoxicity was “minimally cytotoxic relative to DMSO alone”.

In the case of `O=C(Nc1ccccc1F)[C@H](O)[C@@H](O)[C@H](O)[C@H](O)CO` [(2a), N-(2-fluorophenyl)-D-gluconamide], the cytotoxicity is reported as “minimally cytotoxic relative to DMSO alone”.

With `COc1ccc(NC(=O)[C@H](O)[C@@H](O)[C@H](O)[C@H](O)CO)cc1` [(3a), N-(4-methoxyphenyl)-D-gluconamide] the cytotoxicity was “minimally cytotoxic relative to DMSO alone”.

With `O=C(Nc1ccc(Cl)cc1)[C@H](O)[C@@H](O)[C@H](O)[C@H](O)CO` [(4a), N-(4-chlorophenyl)-D-gluconamide] the cytotoxicity was “minimally cytotoxic relative to DMSO alone”.
